The text below walks through data of paper PMC7846792, “Perception of a divergent family of phytocytokines by the Arabidopsis receptor kinase MIK2” (Nature Communications, 2021).

Assay [1] addresses T1, MIK2 ectodomain (MIK2ECD, residues 1–709) (Arabidopsis thaliana, UniProt Q8VZG8).
T1 construct: Arabidopsis thaliana MIK2 (residues 1–709); StrepII-9xHis (TEV-cleavable) (C, cleaved yes); made in house; host or cells: Trichoplusia ni Tnao38 insect cells (baculovirus, modified pFastBac)
T1 sequence (Q8VZG8 44-709): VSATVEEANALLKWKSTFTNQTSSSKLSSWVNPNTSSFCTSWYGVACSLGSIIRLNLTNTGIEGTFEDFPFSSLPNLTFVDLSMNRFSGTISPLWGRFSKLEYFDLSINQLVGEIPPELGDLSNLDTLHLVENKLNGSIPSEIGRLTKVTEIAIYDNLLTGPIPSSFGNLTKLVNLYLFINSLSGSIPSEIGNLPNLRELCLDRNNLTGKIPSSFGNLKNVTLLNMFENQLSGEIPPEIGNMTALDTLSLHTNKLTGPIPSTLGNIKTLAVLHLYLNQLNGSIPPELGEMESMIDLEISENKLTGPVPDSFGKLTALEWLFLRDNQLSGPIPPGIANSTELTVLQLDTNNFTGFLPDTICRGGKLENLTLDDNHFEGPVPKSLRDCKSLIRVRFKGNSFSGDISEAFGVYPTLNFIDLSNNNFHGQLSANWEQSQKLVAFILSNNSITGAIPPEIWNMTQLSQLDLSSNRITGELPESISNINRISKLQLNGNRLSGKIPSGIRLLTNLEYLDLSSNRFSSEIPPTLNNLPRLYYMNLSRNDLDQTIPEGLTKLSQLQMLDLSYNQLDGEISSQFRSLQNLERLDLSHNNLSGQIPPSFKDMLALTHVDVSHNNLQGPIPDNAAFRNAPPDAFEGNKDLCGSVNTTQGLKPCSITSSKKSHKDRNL
In words: ITC, MIK2 vs SCOOP12. It counts as binding. From the text:
ITC data were corrected for the heat of dilution by subtracting the mixing enthalpies for titrant solution injections into protein-free ITC buffer. […] The N values were fitted to 1 in the analysis.
In general terms: Isothermal titration calorimetry measures the heat released or taken up as one component is titrated into another.

In the next assay the test system is A. thaliana seedlings. Description: Seedling growth inhibition (fresh weight). It counts as in vivo, Arabidopsis thaliana. The following applies: mock mean = 1. The protocol:
Four-day-old seedlings growing on MS plates were transferred individually into separate wells of transparent 48-well tissue culture plates (Greiner Bio-One) containing 500 μL of liquid MS media with/without elicitor addition. The plates were then transferred back to the growth conditions for an additional 10 days before seedlings were blot-dried and weighed.

Assay [2] addresses MIK2 ectodomain (MIK2^ECD, residues 1–709) (Arabidopsis thaliana) (UniProt Q8VZG8). Description: ITC; 200 μM SCOOP12 in the syringe injected into 20 μM MIK2 ectodomain in the cell; 25 °C; 20 mM sodium citrate pH 5.0, 150 mM NaCl; N fitted to 1.
For assay [3], the target named is MIK2–SCOOP12 complex (MIK2 ectodomain with SCOOP12 peptide, formed beforehand in the ITC cell) (Arabidopsis thaliana) (UniProt Q8VZG8). Description: ITC; 200 µM BAK1 ectodomain titrated onto the MIK2–SCOOP12 complex in the cell; 25 °C; 20 mM sodium citrate pH 5.0, 150 mM NaCl; N fitted to 1.

No end group written: not given here.

PVRSSQSSQAGGR [SCOOP12] displayed a Kd in assay [1] of 4.56 ± 0.299 µM.

Consider RAGPSKSGQGGGR [SCOOP7], for which the “Seedling fresh weight (Fig3C), relative to mock” value with A. thaliana seedlings (Col-0, 1 μM, replicate 1) is given as 0.0761; with A. thaliana seedlings (Col-0, 1 μM, replicate 2), 0.03653; with A. thaliana seedlings (Col-0, 1 μM, replicate 3), 0.1644; with A. thaliana seedlings (Col-0, 1 μM, replicate 4), 0.1522; in the assay on A. thaliana seedlings (Col-0, 1 μM, replicate 5) it was 0.1644; in the assay with A. thaliana seedlings (Col-0, 1 μM, replicate 6), 0.01826. For the same molecule, the “Seedling fresh weight (Fig3C), relative to mock” value was found to be 0.0761 with A. thaliana seedlings (Col-0, 1 μM, replicate 7); 0.07914 in the assay on A. thaliana seedlings (Col-0, 1 μM, replicate 8); 0.09436 with A. thaliana seedlings (Col-0, 1 μM, replicate 9); 0.08523 in the assay on A. thaliana seedlings (Col-0, 1 μM, replicate 10); 0.1218 with A. thaliana seedlings (Col-0, 1 μM, replicate 11); 0.1035 with A. thaliana seedlings (Col-0, 1 μM, replicate 12). Besides, the “Seedling fresh weight (Fig3C), relative to mock” value with A. thaliana seedlings (Col-0, 10 μM, replicate 1) is 0.009098; in the assay on A. thaliana seedlings (Col-0, 10 μM, replicate 2) it was 0.006065; with A. thaliana seedlings (Col-0, 10 μM, replicate 3), 0.003033; in the assay on A. thaliana seedlings (Col-0, 10 μM, replicate 4), 0.009098; in the assay with A. thaliana seedlings (Col-0, 10 μM, replicate 5), 0.01213; in the assay with A. thaliana seedlings (Col-0, 10 μM, replicate 6), 0.009098. The “Seedling fresh weight (Fig3C), relative to mock” value in the assay with A. thaliana seedlings (Col-0, 10 μM, replicate 7) amounted to 0.01213; in the assay on A. thaliana seedlings (Col-0, 10 μM, replicate 8) it was 0.009098; in the assay with A. thaliana seedlings (Col-0, 10 μM, replicate 9) it was 0.01213; in the assay with A. thaliana seedlings (Col-0, 10 μM, replicate 10), 0.009098; in the assay on A. thaliana seedlings (Col-0, 10 μM, replicate 11), 0.01516; in the assay on A. thaliana seedlings (Col-0, 10 μM, replicate 12) it was 0.006065. The “Seedling fresh weight (Fig3C), relative to mock” value with A. thaliana seedlings (mik2-1, 1 μM, replicate 1) is reported as 1.0796; in the assay with A. thaliana seedlings (mik2-1, 1 μM, replicate 2) it was 1.12; in the assay on A. thaliana seedlings (mik2-1, 1 μM, replicate 3) it was 1.033; in the assay with A. thaliana seedlings (mik2-1, 1 μM, replicate 4), 0.9787; with A. thaliana seedlings (mik2-1, 1 μM, replicate 5) it was 1.006; with A. thaliana seedlings (mik2-1, 1 μM, replicate 6) it was 0.861. In addition, the “Seedling fresh weight (Fig3C), relative to mock” value in the assay with A. thaliana seedlings (mik2-1, 1 μM, replicate 7) is 0.9955; in the assay with A. thaliana seedlings (mik2-1, 1 μM, replicate 8) it was 0.9652; with A. thaliana seedlings (mik2-1, 1 μM, replicate 9) it was 0.9047; with A. thaliana seedlings (mik2-1, 1 μM, replicate 10), 1.0157; in the assay on A. thaliana seedlings (mik2-1, 1 μM, replicate 11), 1.049; in the assay with A. thaliana seedlings (mik2-1, 1 μM, replicate 12) it was 0.9518. The “Seedling fresh weight (Fig3C), relative to mock” value in the assay on A. thaliana seedlings (mik2-1, 10 μM, replicate 1) is given as 1.014; in the assay with A. thaliana seedlings (mik2-1, 10 μM, replicate 2), 0.9772; with A. thaliana seedlings (mik2-1, 10 μM, replicate 3), 0.9332; with A. thaliana seedlings (mik2-1, 10 μM, replicate 4) it was 0.9062; with A. thaliana seedlings (mik2-1, 10 μM, replicate 5), 1.001; in the assay with A. thaliana seedlings (mik2-1, 10 μM, replicate 6) it was 0.94. The “Seedling fresh weight (Fig3C), relative to mock” value is on record as 1.035 in the assay with A. thaliana seedlings (mik2-1, 10 μM, replicate 7); 1.085 in the assay with A. thaliana seedlings (mik2-1, 10 μM, replicate 8); 1.062 in the assay with A. thaliana seedlings (mik2-1, 10 μM, replicate 9); 0.9197 with A. thaliana seedlings (mik2-1, 10 μM, replicate 10); 0.9569 in the assay on A. thaliana seedlings (mik2-1, 10 μM, replicate 11); 0.9028 with A. thaliana seedlings (mik2-1, 10 μM, replicate 12).

With “SERINE RICH ENDOGENOUS PEPTIDE 12 (SCOOP12) synthetic peptide”, the Kd in assay [2] amounted to 4.6 µM.

With YLPPSKSRKGKGP [SCOOP13], the “Seedling fresh weight (Fig3C), relative to mock” value is on record as 0.6301 with A. thaliana seedlings (Col-0, 1 μM, replicate 1); 0.5631 in the assay on A. thaliana seedlings (Col-0, 1 μM, replicate 2); 0.764 in the assay with A. thaliana seedlings (Col-0, 1 μM, replicate 3); 0.8644 in the assay on A. thaliana seedlings (Col-0, 1 μM, replicate 4); 0.9892 in the assay with A. thaliana seedlings (Col-0, 1 μM, replicate 5); 0.5388 with A. thaliana seedlings (Col-0, 1 μM, replicate 6). For the same molecule, the “Seedling fresh weight (Fig3C), relative to mock” value was 0.6544 in the assay on A. thaliana seedlings (Col-0, 1 μM, replicate 7); 0.7792 with A. thaliana seedlings (Col-0, 1 μM, replicate 8); 0.7397 with A. thaliana seedlings (Col-0, 1 μM, replicate 9); 0.831 in the assay on A. thaliana seedlings (Col-0, 1 μM, replicate 10); 0.6483 with A. thaliana seedlings (Col-0, 1 μM, replicate 11); 0.7549 in the assay on A. thaliana seedlings (Col-0, 1 μM, replicate 12). The “Seedling fresh weight (Fig3C), relative to mock” value was 0.02426 in the assay with A. thaliana seedlings (Col-0, 10 μM, replicate 1); 0.03639 with A. thaliana seedlings (Col-0, 10 μM, replicate 2); 0.03942 in the assay on A. thaliana seedlings (Col-0, 10 μM, replicate 3); 0.03336 in the assay with A. thaliana seedlings (Col-0, 10 μM, replicate 4); 0.04246 with A. thaliana seedlings (Col-0, 10 μM, replicate 5); 0.03033 with A. thaliana seedlings (Col-0, 10 μM, replicate 6). Besides, the “Seedling fresh weight (Fig3C), relative to mock” value in the assay with A. thaliana seedlings (Col-0, 10 μM, replicate 7) is recorded as 0.03639; with A. thaliana seedlings (Col-0, 10 μM, replicate 8) it was 0.06975; with A. thaliana seedlings (Col-0, 10 μM, replicate 9) it was 0.07278; in the assay with A. thaliana seedlings (Col-0, 10 μM, replicate 10), 0.04549; in the assay on A. thaliana seedlings (Col-0, 10 μM, replicate 11), 0.03942; in the assay on A. thaliana seedlings (Col-0, 10 μM, replicate 12) it was 0.04852. In addition, the “Seedling fresh weight (Fig3C), relative to mock” value with A. thaliana seedlings (mik2-1, 1 μM, replicate 1) came out at 0.9552; in the assay with A. thaliana seedlings (mik2-1, 1 μM, replicate 2), 1.033; in the assay on A. thaliana seedlings (mik2-1, 1 μM, replicate 3), 0.6626; with A. thaliana seedlings (mik2-1, 1 μM, replicate 4), 0.8038; in the assay on A. thaliana seedlings (mik2-1, 1 μM, replicate 5), 1.026; in the assay with A. thaliana seedlings (mik2-1, 1 μM, replicate 6), 0.9081. The “Seedling fresh weight (Fig3C), relative to mock” value is 1.002 with A. thaliana seedlings (mik2-1, 1 μM, replicate 7); 0.9854 in the assay with A. thaliana seedlings (mik2-1, 1 μM, replicate 8); 1.022 with A. thaliana seedlings (mik2-1, 1 μM, replicate 9); 1.049 in the assay with A. thaliana seedlings (mik2-1, 1 μM, replicate 10); 1.127 in the assay with A. thaliana seedlings (mik2-1, 1 μM, replicate 11); 1.002 in the assay with A. thaliana seedlings (mik2-1, 1 μM, replicate 12). The “Seedling fresh weight (Fig3C), relative to mock” value in the assay with A. thaliana seedlings (mik2-1, 10 μM, replicate 1) came out at 1.163; with A. thaliana seedlings (mik2-1, 10 μM, replicate 2), 0.8385; in the assay with A. thaliana seedlings (mik2-1, 10 μM, replicate 3) it was 1.18; in the assay on A. thaliana seedlings (mik2-1, 10 μM, replicate 4), 1.075; with A. thaliana seedlings (mik2-1, 10 μM, replicate 5), 0.8419; with A. thaliana seedlings (mik2-1, 10 μM, replicate 6) it was 0.8825. Also, the “Seedling fresh weight (Fig3C), relative to mock” value in the assay with A. thaliana seedlings (mik2-1, 10 μM, replicate 7) turned out to be 1.082; with A. thaliana seedlings (mik2-1, 10 μM, replicate 8) it was 0.9738; in the assay with A. thaliana seedlings (mik2-1, 10 μM, replicate 9), 0.9332; with A. thaliana seedlings (mik2-1, 10 μM, replicate 10), 0.9569; in the assay on A. thaliana seedlings (mik2-1, 10 μM, replicate 11), 0.9941; in the assay with A. thaliana seedlings (mik2-1, 10 μM, replicate 12) it was 0.896.

B1: BAK1 ectodomain (residues 1–220) (domain or fragment)
chain: NAEGDALSALKNSLADPNKVLQSWDATLVTPCTWFHVTCNSDNSVTRVDLGNANLSGQLVMQLGQLPNLQYLELYSNNITGTIPEQLGNLTELVSLDLYLNNLSGPIPSTLGRLKKLRFLRLNNNSLSGEIPRSLTAVLTLQVLDLSNNPLTGDIPVNGSFSLFTPISFANTKLTPLPASPPPPISPTPPSPAGS
In turn, B1 returned a Kd in assay [3] of 0.275 µM.

One may read the Kd as the equilibrium constant for the complex coming apart.
